The text below walks through data of patent US20200003762A1, “Diagnostics Platform for Mitochondrial Dysfunctions/Diseases” (BioElectron Technology Corporation, priority 2018, published 2020).

In one data set the test system is Y79. In words: Exemplary training dataset: dysfunction D1 in Y79 cultures exposed to inhibitor A8674. The data set is classed as cell-based, Human. The source says:
or more simply by Yt1 . . . i,d1 . . . j,c1 . . . l or still as a vector Y of the form [y1, y2, . . . , yi*j*l]. Thus, a partial excerpt from an exemplary training data derived from input tensor X for system 100 may be given by Table 7 below:
In the above training dataset, each entry of column Y is a value in the vector Y discussed above. Each entry q of column X(qk) with a hat “^” denotes a vector and is an entry in input tensor X, and is a vector of measured quantities [q1, q2, . . . , qk] of the analytes in the biomarker measurement such as those shown in Tables 3-5. In other words, the training dataset consists of measured vectors q at indices i,j,l of tensor X per above explanation. Human retinoblastoma (Y79) from Table 1 above is used as the cell-line from which in vitro cultures are grown.
Note that rows 1-6 correspond to the scenario when no inhibitor was exposed (zero/O state), and unsurprisingly column Y indicates a 0 or a 0% probability that dysfunction D1 is present in the corresponding culture.

In the next data set the test system is apoptosis. The conditions noted are these: cited from earlier work.
For another data set, the system named is mitochondrial ATPase. The conditions noted are these: cited from earlier work.
Another data set has as its system neoplastic cells. The conditions noted are these: by interfering with hexokinase and disrupting uncoupler-stimulated mitochondrial electron transport; cited from earlier work.
The test system of data set [1] is NADH:ubiquinone oxidoreductase. As to conditions: cited from earlier work.
For data set [2], the system named is plasma and mitochondrial membranes. As to conditions: cited from earlier work.
The next data set relates to background K+ current. As to conditions: cited from earlier work.
The subject of another data set is Mg2+-ATPase. As to conditions: cited from earlier work.
The next data set relates to β-amyloid. The conditions noted are these: cited from earlier work.
In data set [3] the test system is mitochondrial superoxide production. The conditions noted are these: cited from earlier work.
The next data set has as its system ferroptosis. As to conditions: cited from earlier work.
Data set [4] addresses mitochondrial outer membrane protein mitoNEET (Homo sapiens, UniProt Q9NZ45). As to conditions: cited from earlier work.
The target in another data set is PPARγ (Homo sapiens, UniProt P37231). As to conditions: cited from earlier work.
Sequence of PPARγ (P37231 whole entry, species assumed): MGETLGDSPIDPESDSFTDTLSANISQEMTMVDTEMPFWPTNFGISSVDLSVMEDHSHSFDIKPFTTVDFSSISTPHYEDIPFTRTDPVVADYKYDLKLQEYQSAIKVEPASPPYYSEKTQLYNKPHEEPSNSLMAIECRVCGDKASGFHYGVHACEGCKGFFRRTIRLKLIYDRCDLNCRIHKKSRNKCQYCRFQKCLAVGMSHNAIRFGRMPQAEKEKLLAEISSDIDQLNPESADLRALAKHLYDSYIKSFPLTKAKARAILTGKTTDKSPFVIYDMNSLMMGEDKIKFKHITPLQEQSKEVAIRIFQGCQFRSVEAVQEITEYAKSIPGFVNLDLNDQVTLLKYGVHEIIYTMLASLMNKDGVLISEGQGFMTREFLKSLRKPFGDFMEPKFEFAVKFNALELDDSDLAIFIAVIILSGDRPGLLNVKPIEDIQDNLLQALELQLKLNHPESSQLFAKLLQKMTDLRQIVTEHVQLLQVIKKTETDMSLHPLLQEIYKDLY
The test system of data set [5] is mice models of diabetes II. As to conditions: cited from earlier work.
Another data set relates to succinate oxidase. The conditions noted are these: mitochondria preparations of S. cerevisiae; cited from earlier work.
In a further data set the test system is NADH oxidase. As to conditions: mitochondria preparations of S. cerevisiae; cited from earlier work.
The subject of data set [6] is succinate cythochrome C reductase. As to conditions: mitochondria preparations of S. cerevisiae; cited from earlier work.
Data set [7] relates to NADH-cytochrome C reductase. The conditions noted are these: mitochondria preparations of S. cerevisiae; cited from earlier work.
Data set [8] concerns mitochondrial FIFO ATP synthase. As to conditions: cited from earlier work.
For another data set, the system named is FIFO. As to conditions: cited from earlier work.
The next data set deals with isolated rat hearts. The conditions noted are these: during ischemia; cited from earlier work.
Data set [9] addresses human porphobilinogen synthase (PBGS; ALAD) (Homo sapiens, UniProt P13716). As to conditions: allosteric; cited from earlier work.
For another data set, the system named is HL-1. As to conditions: cited from earlier work.
The subject of data set [10] is brush-border membrane vesicles. The conditions noted are these: cited from earlier work.
In a further data set the test system is ADP ribosylation. The conditions noted are these: cited from earlier work.
In data set [11] the test system is monocarboxylic acid transport. As to conditions: cited from earlier work.
Data set [12] concerns β-cell apical anion exchange. As to conditions: read-out: block β-cell apical anion exchange (IC50); cited from earlier work.

Sequence of human porphobilinogen synthase (PBGS; ALAD) (P13716 whole entry): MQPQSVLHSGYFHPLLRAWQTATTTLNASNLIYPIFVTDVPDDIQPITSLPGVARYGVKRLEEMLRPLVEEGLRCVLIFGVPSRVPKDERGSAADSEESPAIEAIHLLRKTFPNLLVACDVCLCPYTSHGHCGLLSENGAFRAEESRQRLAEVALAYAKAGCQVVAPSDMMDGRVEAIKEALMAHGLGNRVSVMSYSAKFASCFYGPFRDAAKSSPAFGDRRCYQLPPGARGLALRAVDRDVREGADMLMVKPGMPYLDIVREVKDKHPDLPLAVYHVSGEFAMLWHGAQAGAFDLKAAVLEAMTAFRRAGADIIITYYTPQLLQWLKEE
Sequence of mitochondrial outer membrane protein mitoNEET (Q9NZ45 whole entry): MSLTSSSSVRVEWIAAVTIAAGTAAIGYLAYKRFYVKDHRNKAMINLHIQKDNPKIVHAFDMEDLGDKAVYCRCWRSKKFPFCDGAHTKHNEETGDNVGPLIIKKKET

Turning to “Antimycin A from Streptomyces sp. [A8674]”, the “Y (probability that dysfunction D1 is present)” value is on record as 0% with Y79 (1 minute, 1 uL); 100% or 1 in the data set on Y79 (30 minutes, 5 uL); 100% or 1 in the data set on Y79 (1 hours, 1 uL); 100% or 1 in the data set on Y79 (5 hours, 1 uL); 100% or 1 in the data set with Y79 (10 hours, 1 uL); 100% or 1 in the data set with Y79 (2 days, 1 uL). For the same compound, the apoptosis entry in the data set on apoptosis was “complex III. Induces apoptosis”.

Turning to `CC[C@H]1/C=C/C=C/C[C@@H](C)[C@H](O)[C@@](C)(O)C(=O)[C@@H](C)[C@H](O)[C@@H](C)C(=O)[C@@H](C)[C@H](O)[C@@H](C)/C=C/C(=O)O[C@@H]2[C@H](C)[C@H](CC1)O[C@]1(CC[C@H](C)[C@H](C[C@@H](C)O)O1)[C@H]2C` [compound 04876, Oligomycin from Streptomyces diastatochromogenes], the “mitochondrial ATPase and phosphoryl group transfer” value with mitochondrial ATPase is “Macrolide antibiotic; inhibits”.

For the compound `O=C(O)c1nn(Cc2ccc(Cl)cc2Cl)c2ccccc12` [L4900, Lonidamine], the “energy metabolism of neoplastic cells” value in the data set with neoplastic cells was “Inhibits the energy metabolism”.

Consider `C=C(C)[C@H]1Cc2c(ccc3c2O[C@@H]2COc4cc(OC)c(OC)cc4[C@@H]2C3=O)O1` [R8875, Rotenone], for which, in [1], the “mitochondrial electron transport at NADH:ubiquinone oxidoreductase” value is recorded as “Inhibitor of mitochondrial”.

For `N#CC(C#N)=NNc1ccc(OC(F)(F)F)cc1` [C2920, Carbonyl cyanide 4-(trifluoromethoxy)phenylhydrazone], the “depolarizing plasma and mitochondrial membranes” value in [2] was “depolarizing plasma and”. In the data set on background K+ current, the “background K+ current” value is “It also is reported to inhibit” and the inward current entry is given as “induce a small inward current,”. For the same compound, the “Mg2+-ATPase activity” value with Mg2+-ATPase was “[Na+]. FCCP stimulates Mg2+-”. In the data set with β-amyloid, the β-amyloid production entry is “ATPase activity, inhibits β-”. In data set [3], the “effect of selective glutamate agonist NMDA on mitochondrial superoxide production” value is “amyloid production, and mimics”.

For `Cc1c(C)c(O)c(CC[C@](C)(O)CCC[C@H](C)CCC[C@H](C)CCCC(C)C)c(C)c1O` [vitamin E hydroquinone], in the data set with ferroptosis, the inhibition of ferroptosis entry is on record as “potent inhibitor”.

On to `CCOC(=O)N1CCC(NC(=S)Nc2cc(Cl)cc(Cl)c2)CC1` [SML1280, TT01001], for which the “binding to mitoNEET” value in [4] was “ligands that binds to mitoNEET”. Also, the PPARγ activation entry on PPARγ was “without PPARγ activation”. In data set [5] (mice models of diabetes II), the glucose intolerance entry was “TT01001 improves hyperglycemia,”, the hyperglycemia result is recorded as “TT01001 improves hyperglycemia,” and the hyperlipidemia entry was “TT01001 improves hyperglycemia,”. Moreover, the “pioglitazone associated weight gain” value in data set [5] (mouse, in vivo) is given as “anti-diabetic effects without”.

`O=[N+]([O-])c1c(Cl)cccc1-c1c[nH]cc1Cl` [P8861, Pyrrolnitrin from Pseudomonas cepacia]: the succinate oxidase entry with succinate oxidase was “inhibited succinate oxidase,”. The NADH oxidase result with NADH oxidase was “inhibited succinate oxidase,”. In addition, the “succinate cythochrome C reductase” value in data set [6] is given as “inhibited succinate oxidase,”. Also, the “NADH-cytochrome C reductase” value in data set [7] is on record as “inhibited succinate oxidase,”.

Consider `CC1(C)Oc2ccc(S(=O)(=O)N3CCCCC3)cc2[C@@H](N(Cc2ncc[nH]2)c2ccc(Cl)cc2)[C@@H]1O.Cl` [BM0017, BMS-199264 hydrochloride], for which, in data set [8], the “ATP hydrolase activity of mitochondrial FIFO ATP synthase” value is listed as “Potently inhibits the ATP”. For the same compound, the “effect on the ATP synthase function of FIFO” value in the data set with FIFO is listed as 199624 has no effect on the ATP. Moreover, the “depletion of ATP levels” value in the data set on isolated rat hearts is given as “blocks depletion of ATP levels,”.

Regarding ML-3H2 [M2324], in [9], the “inhibition of human porphobilinogen synthase” value is on record as “hexamer-stabilizing inhibitor”.

As for `O=C(Oc1cc(S(=O)(=O)c2ccccc2)ccc1[N+](=O)[O-])c1ccc(Cl)cc1` [SML1122, BTB06584], the “ATP hydrolase activity of mitochondrial FIFO ATP synthase” value in [8] was “BTB06584 inhibits the ATP”. In addition, in the data set with HL-1, the “effect on mitochondrial membrane potential” value is “has no effect on oxygen” and the “effect on oxygen consumption” value was “has no effect on oxygen”.

Take `N#CC(C#N)=NNc1cccc(Cl)c1` [C2759, Carbonyl cyanide 3-chlorophenylhydrazone]: in data set [10], the Cl-/Cl- exchange activities entry is “hepatic lipase and partially”; the “pH gradient-activated Cl- uptake” value was “hepatic lipase and partially”.

As for “m-Iodobenzyl-guanidine hemisulfate salt [I9890]”, the ADP ribosylation entry in the data set on ADP ribosylation is listed as “Antitumor agent which inhibits”.

A word on the IC50: it is the concentration needed to halve the response being measured. As for `N#CC(=Cc1ccc(O)cc1)C(=O)O` [C2020, α-Cyano-4-hydroxycinnamic acid], the “monocarboxylic acid transport, including lactate and pyruvate transport” value in data set [11] is reported as “Specific inhibitor of”. For the same compound, the IC50 in data set [12] is 2.4 mM.
